Where only a bound is given, the exact number is not on record here.

What all share (format): functional, organism-based
Holding throughout (conditions): 3D7

The test system of assay [1] is Plasmodium falciparum. In words: MMV: 3H-Hyoxanthine uptake assay; RPMI 1640 (Invitrogen cat#11875-093) with Sodium Bicarbonate (NaHCO3) […].
Assay [2] relates to Plasmodium falciparum. Description: MMV: Modified 3H-Hyoxanthine uptake assay; RPMI 1640 (Invitrogen cat#23400-013) without Sodium Bicarbonate (NaHCO3).
Assay [3] relates to Plasmodium falciparum. In words: MMV: 3H-Hyoxanthine uptake assay; 5% O2, 5% CO2 in N2.
For assay [4], the system named is Plasmodium falciparum. In words: MMV: Modified 3H-Hyoxanthine uptake assay; 1% O2, 5% CO2 in N2.

Usually IC50 stands for the point on the concentration scale where inhibition reaches its midpoint. Higher therefore signals lower potency. Consider `Cc1cc(C)cc(Nc2cc(C)nc3nc(C(F)(F)F)nn23)c1`, for which the IC50 in assay [1] is 59 nM; in assay [2], 132 nM; in assay [3], 81 nM; in assay [4] it was 47 nM.
For `COc1ccc(C(C)=O)cc1N1C(=O)C2C(C1=O)C1(c3ccccc3)C(=O)C2(c2ccccc2)C(c2ccc(C)cc2)=C1c1ccc(C)cc1` (stereo unspecified), in that order: > 1000 nM, > 1000 nM, > 1000 nM and > 1000 nM.
For `CCOC(=O)c1cnc2c(C)cc(C)cc2c1Nc1ccc(OC)c(OC)c1`, in that order: > 2000 nM, > 2000 nM, > 1000 nM and > 1000 nM.
For `Cc1cc(C=C2SC(=Nc3ccccc3)N(C3CCCC3)C2=O)c(C)n1-c1ccc(Cl)cc1`, in that order: > 1000 nM, > 1000 nM, > 1000 nM and > 1000 nM.
Consider `Cc1ccc(Nc2nc(-c3ccccn3)cs2)cc1`, for which the IC50 in assay [1], in assay [2], in assay [3] and in assay [4] was > 1000 nM in each case.
In the case of `CCc1c(C)c(=N)c2ccccc2n1C`, the IC50 in assay [1] came out at 425 nM; in assay [2], 784 nM; in assay [3] it was 324 nM; in assay [4], 338 nM.
For `CCCN(CCC)CC(O)COc1ccccc1C(=O)Nc1ccccc1` (stereo unspecified), in that order: 315 nM, 347 nM, 281 nM and 169 nM.
On the same counts, the results for `CCc1ccc(Nc2cc(C)c3ccc(O)cc3n2)cc1` are 171 nM, 127 nM, 165 nM and 150 nM.
For `Cc1cc(NC(=O)C2c3ccccc3C(=O)N(CC(C)C)C2c2cccs2)no1` (stereo unspecified), the IC50 came out at 213 nM in assay [1], 385 nM in assay [2], 300 nM in assay [3] and 183 nM in assay [4].
For `CNCCCNc1ccnc2cc(Cl)ccc12`, in that order: 40 nM, 155 nM, 44 nM and 23 nM.
Regarding `CSC1=NC(=Nc2c(C)cccc2C)C2(CCC(C(C)(C)C)CC2)N1c1ccc(Cl)cc1` (stereo unspecified), the concentration for half-maximal inhibition (IC50) in assay [1], in assay [2], in assay [3] and in assay [4] was > 1000 nM each time.
As to `COc1ccc2c(=O)cc(C(Cl)(Cl)Cl)oc2c1`, the IC50 was 942 nM in assay [1], 789 nM in assay [2], > 1000 nM in assay [3] and > 1000 nM in assay [4].
As for `Cc1ccc(Nc2nc(NCCO)c3ccccc3n2)cc1C`, the IC50 worked out at 186 nM in assay [1], 325 nM in assay [2], 238 nM in assay [3] and 219 nM in assay [4].
For `COc1cccc(NC(=O)[C@H](C(C)C)n2c(=O)[nH]c3ccccc3c2=O)c1`, in that order: 199 nM, 349 nM, 213 nM and 156 nM.
